Measurements as given in ChEMBL document CHEMBL4665869, “New thiazolopyrimidine as anticancer agents: Synthesis, biological evaluation, DNA binding, molecular modeling and ADMET study” (Bioorg Med Chem Lett, 2020).
Values after ≈ are worked out from the molar mass of the structure shown.

Columns and labels:
[1] = system: LOX IMVI; test: Growth inhibition of human LOX IMVI cells at 10 uM relative to control; format: functional; conditions: read-out: GI
[2] = system: MDA-MB-468; test: Growth inhibition of human MDA-MB-468 cells at 10 uM relative to control; format: functional; conditions: read-out: GI
[3] = system: T47D; test: Growth inhibition of human T47D cells at 10 uM relative to control; format: functional; conditions: read-out: GI
[4] = system: CCRF-CEM; test: Growth inhibition of human CCRF-CEM cells at 10 uM relative to control; format: functional; conditions: read-out: GI
[5] = system: HL-60(TB); test: Growth inhibition of human HL-60(TB) cells at 10 uM relative to control; format: functional; conditions: read-out: GI
[6] = system: K562; test: Growth inhibition of human K562 cells at 10 uM relative to control; format: functional; conditions: read-out: GI
[7] = system: MOLT-4; test: Growth inhibition of human MOLT-4 cells at 10 uM relative to control; format: functional; conditions: read-out: GI
[8] = system: RPMI-8226; test: Growth inhibition of human RPMI-8226 cells at 10 uM relative to control; format: functional; conditions: read-out: GI
[9] = system: SR; test: Growth inhibition of human SR cells at 10 uM relative to control; format: functional; conditions: read-out: GI
[10] = system: A549; test: Growth inhibition of human A549 cells at 10 uM relative to control; format: functional; conditions: read-out: GI
[11] = system: HOP-62; test: Growth inhibition of human HOP-62 cells at 10 uM relative to control; format: functional; conditions: read-out: GI
[12] = system: HOP-92; test: Growth inhibition of human HOP-92 cells at 10 uM relative to control; format: functional; conditions: read-out: GI
[13] = system: NCI-H226; test: Growth inhibition of human NCI-H226 cells at 10 uM relative to control; format: functional; conditions: read-out: GI
[14] = system: NCI-H23; test: Growth inhibition of human NCI-H23 cells at 10 uM relative to control; format: functional; conditions: read-out: GI
[15] = system: NCI-H322M; test: Growth inhibition of human NCI-H322M cells at 10 uM relative to control; format: functional; conditions: read-out: GI
[16] = system: NCI-H460; test: Growth inhibition of human NCI-H460 cells at 10 uM relative to control; format: functional; conditions: read-out: GI
[17] = system: NCI-H522; test: Growth inhibition of human NCI-H522 cells at 10 uM relative to control; format: functional; conditions: read-out: GI
[18] = system: SW-620; test: Growth inhibition of human SW-620 cells at 10 uM relative to control; format: functional; conditions: read-out: GI
[19] = system: COLO 205; test: Growth inhibition of human COLO 205 cells at 10 uM relative to control; format: functional; conditions: read-out: GI
[20] = system: HCC 2998; test: Growth inhibition of human HCC 2998 cells at 10 uM relative to control; format: functional; conditions: read-out: GI
[21] = system: HCT-116; test: Growth inhibition of human HCT-116 cells at 10 uM relative to control; format: functional; conditions: read-out: GI
[22] = system: HCT-15; test: Growth inhibition of human HCT-15 cells at 10 uM relative to control; format: functional; conditions: read-out: GI
[23] = system: HT-29; test: Growth inhibition of human HT-29 cells at 10 uM relative to control; format: functional; conditions: read-out: GI
[24] = system: KM12; test: Growth inhibition of human KM12 cells at 10 uM relative to control; format: functional; conditions: read-out: GI
[25] = system: SF-268; test: Growth inhibition of human SF-268 cells at 10 uM relative to control; format: functional; conditions: read-out: GI
[26] = system: SF-295; test: Growth inhibition of human SF-295 cells at 10 uM relative to control; format: functional; conditions: read-out: GI
[27] = system: SF-539; test: Growth inhibition of human SF-539 cells at 10 uM relative to control; format: functional; conditions: read-out: GI
[28] = system: SNB-19; test: Growth inhibition of human SNB-19 cells at 10 uM relative to control; format: functional; conditions: read-out: GI
[29] = system: SNB-75; test: Growth inhibition of human SNB-75 cells at 10 uM relative to control; format: functional; conditions: read-out: GI
[30] = system: U-251; test: Growth inhibition of human U-251 cells at 10 uM relative to control; format: functional; conditions: read-out: GI
[31] = system: Malme-3M; test: Growth inhibition of human Malme-3M cells at 10 uM relative to control; format: functional; conditions: read-out: GI
[32] = system: M14; test: Growth inhibition of human M14 cells at 10 uM relative to control; format: functional; conditions: read-out: GI
[33] = system: MDA-MB-435; test: Growth inhibition of human MDA-MB-435 cells at 10 uM relative to control; format: functional; conditions: read-out: GI
[34] = system: SK-MEL-2; test: Growth inhibition of human SK-MEL-2 cells at 10 uM relative to control; format: functional; conditions: read-out: GI
[35] = system: SK-MEL-28; test: Growth inhibition of human SK-MEL-28 cells at 10 uM relative to control; format: functional; conditions: read-out: GI
[36] = system: SK-MEL-5; test: Growth inhibition of human SK-MEL-5 cells at 10 uM relative to control; format: functional; conditions: read-out: GI
[37] = system: UACC-257; test: Growth inhibition of human UACC-257 cells at 10 uM relative to control; format: functional; conditions: read-out: GI
[38] = system: UACC-62; test: Growth inhibition of human UACC-62 cells at 10 uM relative to control; format: functional; conditions: read-out: GI
[39] = system: IGROV-1; test: Growth inhibition of human IGROV-1 cells at 10 uM relative to control; format: functional; conditions: read-out: GI
[40] = system: OVCAR-4; test: Growth inhibition of human OVCAR-4 cells at 10 uM relative to control; format: functional; conditions: read-out: GI
[41] = system: OVCAR-5; test: Growth inhibition of human OVCAR-5 cells at 10 uM relative to control; format: functional; conditions: read-out: GI
[42] = system: OVCAR-8; test: Growth inhibition of human OVCAR-8 cells at 10 uM relative to control; format: functional; conditions: read-out: GI
[43] = system: NCI/ADR-RES; test: Growth inhibition of human NCI/ADR-RES cells at 10 uM relative to control; format: functional; conditions: read-out: GI
[44] = system: SK-OV-3; test: Growth inhibition of human SK-OV-3 cells at 10 uM relative to control; format: functional; conditions: read-out: GI
[45] = system: 786-0; test: Growth inhibition of human 786-0 cells at 10 uM relative to control; format: functional; conditions: read-out: GI
[46] = system: A498; test: Growth inhibition of human A498 cells at 10 uM relative to control; format: functional; conditions: read-out: GI
[47] = system: ACHN; test: Growth inhibition of human ACHN cells at 10 uM relative to control; format: functional; conditions: read-out: GI
[48] = system: CAKI-1; test: Growth inhibition of human CAKI-1 cells at 10 uM relative to control; format: functional; conditions: read-out: GI
[49] = system: RXF 393; test: Growth inhibition of human RXF 393 cells at 10 uM relative to control; format: functional; conditions: read-out: GI
[50] = system: SN12C; test: Growth inhibition of human SN12C cells at 10 uM relative to control; format: functional; conditions: read-out: GI
[51] = system: TK-10; test: Growth inhibition of human TK-10 cells at 10 uM relative to control; format: functional; conditions: read-out: GI
[52] = system: UO-31; test: Growth inhibition of human UO-31 cells at 10 uM relative to control; format: functional; conditions: read-out: GI
[53] = system: PC-3; test: Growth inhibition of human PC-3 cells at 10 uM relative to control; format: functional; conditions: read-out: GI
[54] = system: DU-145; test: Growth inhibition of human DU-145 cells at 10 uM relative to control; format: functional; conditions: read-out: GI
[55] = system: MCF7; test: Growth inhibition of human MCF7 cells at 10 uM relative to control; format: functional; conditions: read-out: GI
[56] = system: MDA-MB-231; test: Growth inhibition of human MDA-MB-231 cells at 10 uM relative to control; format: functional; conditions: read-out: GI
[57] = system: Hs-578T; test: Growth inhibition of human Hs-578T cells at 10 uM relative to control; format: functional; conditions: read-out: GI
[58] = system: BT-549; test: Growth inhibition of human BT-549 cells at 10 uM relative to control; format: functional; conditions: read-out: GI
[59] = target: DNA; test: Displacement of methyl green from DNA (unknown origin) assessed as DNA intercalation after 24 hrs by colorimetric assay; format: nucleic-acid assay

For `COc1ccc(/C=C/C2=CC(c3ccc(OC)cc3)N3C=CSC3=N2)cc1` (centres undefined), the inhibition of growth at 10 µM [1] was under 10%, the inhibition of growth at 10 µM [2] was under 10% and the inhibition of growth at 10 µM [3] was under 10%. For the same compound, the inhibition of growth at 10 µM [4] was under 10%, the inhibition of growth at 10 µM [5] was under 10% and the inhibition of growth at 10 µM [6] was under 10%. It also gave an inhibition of growth at 10 µM [7] of under 10%, an inhibition of growth at 10 µM [8] of under 10% and an inhibition of growth at 10 µM [9] of under 10%. For the same compound, the inhibition of growth at 10 µM [10] was under 10%, the inhibition of growth at 10 µM [11] was under 10% and the inhibition of growth at 10 µM [12] was 10.1%. It also gave an inhibition of growth at 10 µM [13] of under 10%, an inhibition of growth at 10 µM [14] of under 10% and an inhibition of growth at 10 µM [15] of under 10%. For the same compound, the inhibition of growth at 10 µM [16] was under 10%, the inhibition of growth at 10 µM [17] was under 10% and the inhibition of growth at 10 µM [18] was under 10%. The inhibition of growth at 10 µM [19] was under 10%, the inhibition of growth at 10 µM [20] was under 10% and the inhibition of growth at 10 µM [21] was under 10%. For the same compound, the inhibition of growth at 10 µM [22] was under 10%, the inhibition of growth at 10 µM [23] was under 10% and the inhibition of growth at 10 µM [24] was under 10%. The inhibition of growth at 10 µM [25] was under 10%, the inhibition of growth at 10 µM [26] was under 10% and the inhibition of growth at 10 µM [27] was under 10%. The inhibition of growth at 10 µM [28] was under 10%, the inhibition of growth at 10 µM [29] was under 10% and the inhibition of growth at 10 µM [30] was under 10%. For the same compound, the inhibition of growth at 10 µM [31] was under 10%, the inhibition of growth at 10 µM [32] was under 10% and the inhibition of growth at 10 µM [33] was under 10%. The inhibition of growth at 10 µM [34] was under 10%, the inhibition of growth at 10 µM [35] was under 10% and the inhibition of growth at 10 µM [36] was under 10%. The inhibition of growth at 10 µM [37] was 11.9%, the inhibition of growth at 10 µM [38] was under 10% and the inhibition of growth at 10 µM [39] was under 10%. For the same compound, the inhibition of growth at 10 µM [40] was under 10%, the inhibition of growth at 10 µM [41] was under 10% and the inhibition of growth at 10 µM [42] was under 10%. It also gave an inhibition of growth at 10 µM [43] of under 10%, an inhibition of growth at 10 µM [44] of under 10% and an inhibition of growth at 10 µM [45] of under 10%. The inhibition of growth at 10 µM [46] was under 10%, the inhibition of growth at 10 µM [47] was under 10% and the inhibition of growth at 10 µM [48] was under 10%. The inhibition of growth at 10 µM [49] was under 10%, the inhibition of growth at 10 µM [50] was under 10% and the inhibition of growth at 10 µM [51] was under 10%. For the same compound, the inhibition of growth at 10 µM [52] was under 10%, the inhibition of growth at 10 µM [53] was 17.2% and the inhibition of growth at 10 µM [54] was under 10%. For the same compound, the inhibition of growth at 10 µM [55] was under 10%, the inhibition of growth at 10 µM [56] was under 10% and the inhibition of growth at 10 µM [57] was under 10%. The inhibition of growth at 10 µM [58] was under 10% and the IC50 [59] was 47.75 µg/mL (≈ 127 µM).
